Reference: the supplement of paper PMC10883282

What was measured:
Assay in all cases: relative viability vs DMSO control (72 h) (fraction); higher = more viable cells
G401 = test system: G401
In short: (§1)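 Sarcoma cell lines in 384-well plates, seeded to reach 80–90% confluence, were given compound after 24 h and kept 72 h at 37 °C, 5% CO2, with 0.1% DMSO vehicle and a 5 µM positive control. Relative viability came from ATPLite as percent growth, averaged over up to triplicate wells. On the rescaled values, 1 equals full and 0 equals none.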

HS729 = test system: HS729
In short: as §1

SYO-1 = test system: SYO-1
In short: as §1

SW872 = test system: SW872
In short: as §1

VA-ES-BJ = test system: VA-ES-BJ
In short: as §1

A204 = test system: A204
In short: as §1

SK-ES-1 = test system: SK-ES-1
In short: as §1

SK-LMS-1 = test system: SK-LMS-1
In short: as §1

SW684 = test system: SW684
In short: as §1

MES-SA = test system: MES-SA
In short: as §1

RD = test system: RD
In short: as §1

KHOS-NP = test system: KHOS-NP
In short: as §1

C[C@]12O[C@H](C[C@]1(O)CO)n1c3ccccc3c3c4c(c5c6ccccc6n2c5c31)CNC4=O [Lestaurtinib]
Settings | relative viability
A204, 0.00017 µM | 1.07
A204, 0.00051 µM | 1.07
A204, 0.00152 µM | 1.07
A204, 0.00457 µM | 1.02
A204, 0.01372 µM | 0.967
A204, 0.04115 µM | 0.788
A204, 0.1235 µM | 0.56
A204, 0.3704 µM | 0.378
A204, 1.111 µM | 0.321
A204, 3.333 µM | 0.277
A204, 10 µM | 0.118
G401, 0.00017 µM | 1.01
G401, 0.00051 µM | 0.985
G401, 0.00152 µM | 1.03
G401, 0.00457 µM | 1.02
G401, 0.01372 µM | 1.03
G401, 0.04115 µM | 0.996
G401, 0.1235 µM | 0.985
G401, 0.3704 µM | 0.912
G401, 1.111 µM | 0.718
G401, 3.333 µM | 0.023
G401, 10 µM | 0.00583
HS729, 0.00017 µM | 1.05
HS729, 0.00051 µM | 1
HS729, 0.00152 µM | 1.01
HS729, 0.00457 µM | 0.932
HS729, 0.01372 µM | 0.863
HS729, 0.04115 µM | 0.797
HS729, 0.1235 µM | 0.757
HS729, 0.3704 µM | 0.723
HS729, 1.111 µM | 0.619
HS729, 3.333 µM | 0.411
HS729, 10 µM | 0.207
KHOS-NP, 0.00017 µM | 1.11
KHOS-NP, 0.00051 µM | 1.108
KHOS-NP, 0.00152 µM | 1.11
KHOS-NP, 0.00457 µM | 1.1
KHOS-NP, 0.01372 µM | 1.1
KHOS-NP, 0.04115 µM | 1.08
KHOS-NP, 0.1235 µM | 0.9051
KHOS-NP, 0.3704 µM | 0.785
KHOS-NP, 1.111 µM | 0.471
KHOS-NP, 3.333 µM | 0.205
KHOS-NP, 10 µM | 0.091
MES-SA, 0.00017 µM | 0.966
MES-SA, 0.00051 µM | 0.928
MES-SA, 0.00152 µM | 0.947
MES-SA, 0.00457 µM | 0.947
MES-SA, 0.01372 µM | 0.874
MES-SA, 0.04115 µM | 0.751
MES-SA, 0.1235 µM | 0.538
MES-SA, 0.3704 µM | 0.333
MES-SA, 1.111 µM | 0.2911
MES-SA, 3.333 µM | 0.164
MES-SA, 10 µM | 0.00447
RD, 0.00017 µM | 1.05
RD, 0.00051 µM | 1.064
RD, 0.00152 µM | 1.09
RD, 0.00457 µM | 1.09
RD, 0.01372 µM | 1.1
RD, 0.04115 µM | 1.06
RD, 0.1235 µM | 1.01
RD, 0.3704 µM | 0.892
RD, 1.111 µM | 0.645
RD, 3.333 µM | 0.326
RD, 10 µM | 0.126
SK-ES-1, 0.00017 µM | 1.1
SK-ES-1, 0.00051 µM | 1.06
SK-ES-1, 0.00152 µM | 1.07
SK-ES-1, 0.00457 µM | 1
SK-ES-1, 0.01372 µM | 0.881
SK-ES-1, 0.04115 µM | 0.543
SK-ES-1, 0.1235 µM | 0.329
SK-ES-1, 0.3704 µM | 0.0863
SK-ES-1, 1.111 µM | 0.0742
SK-ES-1, 3.333 µM | 0.0554
SK-ES-1, 10 µM | 0.0776
SK-LMS-1, 0.00017 µM | 1.08
SK-LMS-1, 0.00051 µM | 1.1
SK-LMS-1, 0.00152 µM | 1.06
SK-LMS-1, 0.00457 µM | 1.04
SK-LMS-1, 0.01372 µM | 1.01
SK-LMS-1, 0.04115 µM | 0.878
SK-LMS-1, 0.1235 µM | 0.722
SK-LMS-1, 0.3704 µM | 0.669
SK-LMS-1, 1.111 µM | 0.541
SK-LMS-1, 3.333 µM | 0.353
SK-LMS-1, 10 µM | 0.146
SW684, 0.00017 µM | 1.15
SW684, 0.00051 µM | 1.18
SW684, 0.00152 µM | 1.16
SW684, 0.00457 µM | 1.17
SW684, 0.01372 µM | 1.18
SW684, 0.04115 µM | 1.13
SW684, 0.1235 µM | 1.11
SW684, 0.3704 µM | 0.913
SW684, 1.111 µM | 0.659
SW684, 3.333 µM | 0.346
SW684, 10 µM | 0.0527
SW872, 0.00017 µM | 1.08
SW872, 0.00051 µM | 1.07
SW872, 0.00152 µM | 1.04
SW872, 0.00457 µM | 1.03
SW872, 0.01372 µM | 0.955
SW872, 0.04115 µM | 0.803
SW872, 0.1235 µM | 0.648
SW872, 0.3704 µM | 0.507
SW872, 1.111 µM | 0.358
SW872, 3.333 µM | 0.267
SW872, 10 µM | 0.0094
SYO-1, 0.00017 µM | 1.02
SYO-1, 0.00051 µM | 0.989
SYO-1, 0.00152 µM | 0.992
SYO-1, 0.00457 µM | 0.991
SYO-1, 0.01372 µM | 0.943
SYO-1, 0.04115 µM | 0.873
SYO-1, 0.1235 µM | 0.644
SYO-1, 0.3704 µM | 0.295
SYO-1, 1.111 µM | 0.0874
SYO-1, 3.333 µM | 0.1
SYO-1, 10 µM | 0.102
VA-ES-BJ, 0.00017 µM | 1.06
VA-ES-BJ, 0.00051 µM | 1.06
VA-ES-BJ, 0.00152 µM | 1.06
VA-ES-BJ, 0.00457 µM | 1.03
VA-ES-BJ, 0.01372 µM | 0.953
VA-ES-BJ, 0.04115 µM | 0.838
VA-ES-BJ, 0.1235 µM | 0.657
VA-ES-BJ, 0.3704 µM | 0.544
VA-ES-BJ, 1.111 µM | 0.42
VA-ES-BJ, 3.333 µM | 0.176
VA-ES-BJ, 10 µM | -0.00757
